Experimental data published in article PMC5838106, “Cathelicidin promotes inflammation by enabling binding of self-RNA to cell surface scavenger receptors” (Scientific Reports, 2018).
Where no end group is shown, it is not given here.

Legend:
NHEKs = test: Cytokine mRNA expression in NHEKs stimulated with cathelicidin peptide and dsRNA (quantitative real-time PCR); format: cell-based, human; conditions: for capacity to enable U1 RNA to amplify IFN-β1 or IL-6 expression: NHEKs, peptide 2.5 μM 10 minutes, then U1 RNA 2.5 μg/mL 6 hours, n = 3
Experimental: Figure 1 Inflammatory activity of cathelicidin can be dissociated from antimicrobial function (a) Transcriptomic analysis by RNASeq of primary cultures of normal human epidermal keratinocytes (NHEKs) treated with LL37 (2.5 μM) with or without U1 RNA (2.5 μg/mL) for 24 hours. Shown are gene sets induced > 2 fold over vehicle, and after treatment with LL37, U1 RNA, or the combination of LL37 + U1 RNA. (b) Gene Ontology analysis of gene sets from (a). The number of genes related to each biological process is indicated in parentheses. (c) Amino acid sequence of synthetic cathelicidin peptides used in this study. (d) Antimicrobial assay of cathelicidin peptides against group A streptococcus (GAS). GAS were incubated with various concentrations of each peptide (0–25 μM) for 6 hours, then surviving colonies counted after plating on Todd Hewitt Broth gel. (e) IFN-β1 mRNA abundance and (f) IL-6 mRNA abundance in NHEKs after treatment with cathelicidin peptides (2.5 μM) for 10 minutes, then stimulated with U1 RNA (2.5 μg/mL) for a further 6 hours. (n = 3). (g) IFN-β1 mRNA abundance and (h) IL-6 mRNA abundance in […] (PMA)-treated THP1 cells after treatment with cathelicidin peptides (3 μM) for 10 minutes, then stimulated with U1 RNA (12.5 μg/mL) overnight. (n = 3). Data presented are from one representative experiment of at least two independent experiments. Error bars are SEM of three biological replicates. *P < 0.05, **P < 0.01, ***P < 0.001 by two-way ANOVA with Bonferroni’s post-hoc test. See also Fig. S1. […]
RNA was isolated from NHEKs using Purelink RNA isolation columns (ThermoFisher Scientific) according to the manufacturer’s instructions. RNA was quantified using a Nanodrop spectrophotometer (ThermoFisher Scientific), and up to 500 ng of RNA was reverse-transcribed using the iScript cDNA synthesis kit (Bio-Rad, Irvine, CA). Quantitative real-time PCR reactions were run on a CFX96 real-time detection system (Bio-Rad) using gene-specific primers and TaqMan probes (ThermoFisher Scientific). […]

SR-B1 = target: T1, SR-B1 (Homo sapiens, UniProt Q8WTV0); test: Immunofluorescence localisation of U1 RNA with SR-B1; format: cell-based; conditions: NHEKs, 4 °C, 10 minutes with U1 RNA and peptide
T1 construct: endogenous in cells; host or cells: NHEK (primary neonatal human epidermal keratinocytes)
T1 sequence (Q8WTV0 1-509 isoform Q8WTV0-2): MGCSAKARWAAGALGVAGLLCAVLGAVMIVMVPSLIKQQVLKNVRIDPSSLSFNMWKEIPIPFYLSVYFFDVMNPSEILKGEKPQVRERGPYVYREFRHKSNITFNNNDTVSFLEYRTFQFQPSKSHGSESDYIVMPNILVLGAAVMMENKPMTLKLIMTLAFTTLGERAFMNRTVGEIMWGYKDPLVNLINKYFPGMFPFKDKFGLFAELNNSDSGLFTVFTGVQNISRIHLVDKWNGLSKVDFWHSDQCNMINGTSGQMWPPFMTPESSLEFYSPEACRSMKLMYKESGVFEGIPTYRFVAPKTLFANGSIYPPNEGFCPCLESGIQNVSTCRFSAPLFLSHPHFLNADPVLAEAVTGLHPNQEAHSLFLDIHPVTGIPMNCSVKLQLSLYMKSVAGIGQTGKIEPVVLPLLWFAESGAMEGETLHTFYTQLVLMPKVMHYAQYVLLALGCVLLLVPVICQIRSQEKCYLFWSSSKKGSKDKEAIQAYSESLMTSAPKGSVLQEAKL
Experimental: NHEKs were grown on 8-well chamber slides (Thermofisher Scientific). After indicated treatments, cells were fixed in 4% paraformaldehyde (PFA) (Thermofisher Scientific) for 10 minutes and blocked with 3% bovine serum albumin, 0.2 M Glycine (Sigma) with or without 1 mg/mL saponin (Sigma) prior to incubating with primary antibodies followed by appropriate 488- or 568-coupled secondary antibodies, or 488-streptavidin conjugate. Nuclei were counterstained with DAPI. All images were taken with an Olympus BX41 microscope (widefield), Zeiss LSM510 confocal microscope, or Nikon A1R Confocal STORM microscope as indicated.
Figure S3. a) NHEKs cultured at 4 °C for 10 minutes with U1 RNA and cathelicidin peptide. […]
RNA. NHEKs were cultured with various cathelicidin peptides (2.5 µM) for 10 minutes, then with biotinylated U1 RNA (2.5 µg/mL) at 4 °C for 1 hour before physical proximity of SR-A6 and U1 RNA was determined using a fluorescence-based PLA that produces a red fluorescent signal. […] PMA-treated THP1 were cultured with various cathelicidin peptides (3 µM) for 10 minutes, then with biotinylated U1 RNA (2.5 µg/mL) at 4 °C for 1 hour before physical proximity of U1 RNA and scavenger receptors was determined using a fluorescence-based PLA, each count is PLA complexes observed in 5 visual fields. f) NHEKs cultured at 37 °C that were stained immediately after or after 5 […]

LL37
capacity to enable U1 RNA to amplify IFN-β1 or IL-6 expression (NHEKs): large responses
U1 RNA localization with SR-B1 (SR-B1): enabled U1 RNA to localize with SR-B1

LLGDFFRKSKEKIGKEFKRIVQRIKDFLRNLVPR [LL34]
capacity to enable U1 RNA to amplify IFN-β1 or IL-6 expression (NHEKs): large responses
capacity to induce IL-6 and IFN-β mRNA (NHEKs; peptide with U1 RNA, keratinocytes): ca. 3000 fold
U1 RNA localization with SR-B1 (SR-B1): enabled U1 RNA to localize with SR-B1
